The test system of this assay is miR-34b, miR-132, miR-137, miR-193a, and miR-203 genes in oral squamous-cell carcinoma cell lines. Kind of assay: Real-time RT-PCR of candidate miRNA gene expression after treatment with demethylating reagent. In kind it is cell-based. From the text:
The miRNA expression levels were compared in terms of relative value based on the RNU6B expression level as an internal control. Stars represent 21 types of miRNA genes located on or around the CpG islands. […] A bar graph representing each cell line represents a comparison of expression levels in the RT7 cells and in each cell line. […] A bar graph representing each cell line indicates a comparison of expression levels in untreated cells and in treated cells. […] Asterisks (*) represent a frequency of oral squamous-cell carcinoma cell lines in which recovery of candidate miRNA expression (expression levels of more than 1.5-fold) was observed by comparing untreated cells with cells that have been treated with 10 μM 5-aza-dCyd.
In order to inspect whether or not expression of these 5 types of miRNA genes was suppressed by DNA methylation, oral squamous-cell carcinoma cell lines in which these 5 types of miRNA genes had not been expressed were treated with 1 μM and 10 μM demethylating reagents (5-aza-dCyd) for 5 days. RNA was extracted from these cell lines and expression of candidate miRNA genes was inspected via real-time RT-PCR (FIG. 1D).
Background: Quantitative PCR measures a nucleic acid by following its amplification.

As to `Nc1ncn([C@H]2C[C@H](O)[C@@H](CO)O2)c(=O)n1` [5-aza-dCyd, 5-aza-2′-deoxycytidine], where the note is “1 μM and 10 μM for 5 days, OSCC cell lines in which the 5 miRNA genes had not been expressed”, the “recovery of candidate miRNA gene expression” value is given as “expression of these genes was found to be recovered”. The “demethylation of CpG islands near the miRNA genes” value (oral squamous-cell carcinoma cells cultured in the presence of the demethylating reagent) was “possible to demethylate such CpG islands”.

The values above are taken from patent publication US20110076768A1, “METHOD FOR DETECTING CARCINOMA AND AGENT FOR SUPPRESSING CARCINOMA” (priority 2008, published 2011).
